Measured values reported in patent publication US20240083998A1, “PREVENTION AND TREATMENT OF STEROID-RESISTANT OR GUT GRAFT-VERSUS-HOST DISEASE (GVHD)” (CIY OF HOPE, priority 2021, published 2024).

System: BALB/c recipients
Protocol: Splenocytes and T cell depleted bone marrow cells from donors were injected via tail vein into recipients 6-8 hours after irradiation. […] Depletion of T cells from the bone marrow was accomplished by using biotin-conjugated anti-CD4 and anti-CD8 mAbs, and streptavidin Microbeads (Miltenyi Biotec, Germany), followed by passage through an autoMACS Pro cell sorter (Miltenyi Biotec, Germany). Microbeads (Ly-2, Miltenyi Biotec, Germany) were used for to purify CD8^+T cell, and purity was>99%. The assessment and scoring of clinical signs of GVHD have been described in previous publications^60.
ELISA: Reg3γ(antibodies online), ST2 (R&D system) and sTNFR1 (Thermo Scientific) in serum were measured by enzyme-linked immune sorbent assay (ELISA) according to manufacturer's protocol. Serum was collected and spun down at 2000 rpm for 10 min at 4° C. Clear supernatant was collected and stored at −20° C. until ELISA analysis. […]
Histological analysis: Tissue specimens were fixed in formalin before embedding in paraffin blocks, sectioned and stained with H&E. Slides were examined at 100× or 200× magnification and visualized with a Zeiss Observer II. […] For Paneth cell quantification, a total of 9 pictures from 3 different locations of the H&E-stained slides from one mouse were taken under 200× magnification, and total Paneth cell and crypt numbers were counted, Paneth cell numbers per crypt are shown. […]

With `C[C@@H]1C[C@H]2[C@@H]3CCC4=CC(=O)C=C[C@]4(C)[C@@]3(F)[C@@H](O)C[C@]2(C)[C@@]1(O)C(=O)CO` [DEX, Dexamethasone] the “IL-17A+IL-22−CD4+Th17 and IL-17A+IL-22−CD8+Tc17 cells among CD4+ and CD8+T cells” value (recipients treated with DEX, 7 days after HCT) was 1-5% and the “survival after HCT” value (single injection 5 mg/Kg on day 3 (1-DEX), mild clinical GVHD) was “up to 20 days”.
